Values joined by “and” are separate entries in the source; they are usually repeats but may differ in a detail not shown here. Equal values may be shown once.
Tested on: MDA-MB-468 complex spheroids with HUVEC/MSC, viability
Assay: Anticancer human tumor MDA-MB-468 cell line growth inhibition;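 further: spheroids exposed to agents for seven days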;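 on viability, T/C: 100% = DMSO vehicle control viability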
Conditions: for viability, T/C: stronger effect = lower value
In short: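 Drug combinations with the LSD1 inhibitor iadademstat tested on tumor cells co-cultured as spheroids with endothelial cells and mesenchymal stem cells. Concentrations descended in half-log increments from clinical Cmax or 10 microM.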

[1] = curve of first compound, second compound 0.1 µM
[2] = curve of first compound, second compound 0.316 µM
[3] = curve of first compound, second compound 1 µM
[4] = curve of first compound, second compound 3.16 µM
[5] = curve of first compound, second compound 10 µM
[6] = second compound 0.1 µM, first compound 0.00949 µM
[7] = second compound 0.1 µM, first compound 0.03 µM
[8] = second compound 0.1 µM, first compound 0.0949 µM
[9] = second compound 0.1 µM, first compound 0.3 µM
[10] = second compound 0.1 µM, first compound 0.949 µM
[11] = second compound 0.1 µM, first compound 3 µM
[12] = second compound 0.316 µM, first compound 0.00949 µM
[13] = second compound 0.316 µM, first compound 0.03 µM
[14] = second compound 0.316 µM, first compound 0.0949 µM
[15] = second compound 0.316 µM, first compound 0.3 µM
[16] = second compound 0.316 µM, first compound 0.949 µM
[17] = second compound 0.316 µM, first compound 3 µM
[18] = second compound 1 µM, first compound 0.00949 µM
[19] = second compound 1 µM, first compound 0.03 µM
[20] = second compound 1 µM, first compound 0.0949 µM
[21] = second compound 1 µM, first compound 0.3 µM
[22] = second compound 1 µM, first compound 0.949 µM
[23] = second compound 1 µM, first compound 3 µM
[24] = second compound 3.16 µM, first compound 0.00949 µM
[25] = second compound 3.16 µM, first compound 0.03 µM
[26] = second compound 3.16 µM, first compound 0.0949 µM
[27] = second compound 3.16 µM, first compound 0.3 µM
[28] = second compound 3.16 µM, first compound 0.949 µM
[29] = second compound 3.16 µM, first compound 3 µM
[30] = second compound 10 µM, first compound 0.00949 µM
[31] = second compound 10 µM, first compound 0.03 µM
[32] = second compound 10 µM, first compound 0.0949 µM
[33] = second compound 10 µM, first compound 0.3 µM
[34] = second compound 10 µM, first compound 0.949 µM
[35] = second compound 10 µM, first compound 3 µM
[36] = second compound 0.1 µM, first compound 0.0316 µM
[37] = second compound 0.1 µM, first compound 0.1 µM
[38] = second compound 0.1 µM, first compound 0.316 µM
[39] = second compound 0.1 µM, first compound 1 µM
[40] = second compound 0.1 µM, first compound 3.16 µM
[41] = second compound 0.1 µM, first compound 10 µM
[42] = second compound 0.316 µM, first compound 0.0316 µM
[43] = second compound 0.316 µM, first compound 0.1 µM
[44] = second compound 0.316 µM, first compound 0.316 µM
[45] = second compound 0.316 µM, first compound 1 µM
[46] = second compound 0.316 µM, first compound 3.16 µM
[47] = second compound 0.316 µM, first compound 10 µM
[48] = second compound 1 µM, first compound 0.0316 µM
[49] = second compound 1 µM, first compound 0.1 µM
[50] = second compound 1 µM, first compound 0.316 µM
[51] = second compound 1 µM, first compound 1 µM
[52] = second compound 1 µM, first compound 3.16 µM
[53] = second compound 1 µM, first compound 10 µM
[54] = second compound 3.16 µM, first compound 0.0316 µM
[55] = second compound 3.16 µM, first compound 0.1 µM
[56] = second compound 3.16 µM, first compound 0.316 µM
[57] = second compound 3.16 µM, first compound 1 µM
[58] = second compound 3.16 µM, first compound 3.16 µM
[59] = second compound 3.16 µM, first compound 10 µM
[60] = second compound 10 µM, first compound 0.0316 µM
[61] = second compound 10 µM, first compound 0.1 µM
[62] = second compound 10 µM, first compound 0.316 µM
[63] = second compound 10 µM, first compound 1 µM
[64] = second compound 10 µM, first compound 3.16 µM
[65] = second compound 10 µM, first compound 10 µM

SMILES: NS(=O)(=O)OCC1CC(n2ccc3c(NC4CCc5ccccc54)ncnc32)CC1O (configuration not stated) + NC1CCC(NC2CC2c2ccccc2)CC1
- IC50 [1]: 0.0245 µM
- IC50 [2]: 0.028 µM
- IC50 [3]: 0.0276 µM
- IC50 [4]: 0.0206 µM
- IC50 [5]: < 0.00949 µM
- viability, T/C [6]: 74.4%
- viability, T/C [7]: 45%
- viability, T/C [8]: 16.9%
- viability, T/C [9]: 9.63%
- viability, T/C [10]: 6.43%
- viability, T/C [11]: 4.54%
- viability, T/C [12]: 75.9%
- viability, T/C [13]: 48.4%
- viability, T/C [14]: 17.9%
- viability, T/C [15]: 8.22%
- viability, T/C [16]: 6.34%
- viability, T/C [17]: 4.71%
- viability, T/C [18]: 66%
- viability, T/C [19]: 48.9%
- viability, T/C [20]: 14.8%
- viability, T/C [21]: 9.7%
- viability, T/C [22]: 7.19%
- viability, T/C [23]: 4.84%
- viability, T/C [24]: 69.5%
- viability, T/C [25]: 40.7%
- viability, T/C [26]: 16.4%
- viability, T/C [27]: 8.71%
- viability, T/C [28]: 6.1%
- viability, T/C [29]: 4.26%
- viability, T/C [30]: 46.8%
- viability, T/C [31]: 27%
- viability, T/C [32]: 11.4%
- viability, T/C [33]: 5.55%
- viability, T/C [34]: 4.09%
- viability, T/C [35]: 3.17%

SMILES: COc1cc(C2c3cc4c(cc3C(OC3OC5COC(C)OC5C(O)C3O)C3COC(=O)C23)OCO4)cc(OC)c1O (configuration not stated) + NC1CCC(NC2CC2c2ccccc2)CC1
- IC50 [1]: 0.0992 µM
- IC50 [2]: 0.0931 µM
- IC50 [3]: 0.0892 µM
- IC50 [4]: 0.0766 µM
- IC50 [5]: 0.0526 µM
- viability, T/C [6]: 83.6%
- viability, T/C [7]: 91.3%
- viability, T/C [8]: 51.6%
- viability, T/C [9]: 13.8%
- viability, T/C [10]: 10.8%
- viability, T/C [11]: 8.8%
- viability, T/C [12]: 82.6%
- viability, T/C [13]: 72.3%
- viability, T/C [14]: 51.2%
- viability, T/C [15]: 14.3%
- viability, T/C [16]: 12.5%
- viability, T/C [17]: 9.23%
- viability, T/C [18]: 90.7%
- viability, T/C [19]: 77.2%
- viability, T/C [20]: 50.8%
- viability, T/C [21]: 13.8%
- viability, T/C [22]: 12.8%
- viability, T/C [23]: 8.57%
- viability, T/C [24]: 67.6%
- viability, T/C [25]: 68.2%
- viability, T/C [26]: 45.9%
- viability, T/C [27]: 15.5%
- viability, T/C [28]: 15.3%
- viability, T/C [29]: 8.59%
- viability, T/C [30]: 55.5%
- viability, T/C [31]: 64.5%
- viability, T/C [32]: 39.5%
- viability, T/C [33]: 17.1%
- viability, T/C [34]: 17.2%
- viability, T/C [35]: 11%

SMILES: CC(C)c1c(-c2ccccc2)nc2c(C#N)c[nH]n2c1=O + NC1CCC(NC2CC2c2ccccc2)CC1
- IC50 [1]: > 10 µM
- IC50 [2]: > 10 µM
- IC50 [3]: > 10 µM
- IC50 [4]: > 10 µM
- IC50 [5]: > 10 µM
- viability, T/C [36]: 96.1%
- viability, T/C [37]: 109%
- viability, T/C [38]: 109%
- viability, T/C [39]: 108%
- viability, T/C [40]: 105%
- viability, T/C [41]: 85.4%
- viability, T/C [42]: 99.2%
- viability, T/C [43]: 101%
- viability, T/C [44]: 84.3%
- viability, T/C [45]: 99.5%
- viability, T/C [46]: 102%
- viability, T/C [47]: 99.5%
- viability, T/C [48]: 102%
- viability, T/C [49]: 103%
- viability, T/C [50]: 96.3%
- viability, T/C [51]: 102%
- viability, T/C [52]: 101%
- viability, T/C [53]: 85.8%
- viability, T/C [54]: 82.2%
- viability, T/C [55]: 102%
- viability, T/C [56]: 77.7%
- viability, T/C [57]: 95.4%
- viability, T/C [58]: 50.7%
- viability, T/C [59]: 62.5%
- viability, T/C [60]: 74%
- viability, T/C [61]: 66.7%
- viability, T/C [62]: 70.2%
- viability, T/C [63]: 57.2%
- viability, T/C [64]: 66%
- viability, T/C [65]: 70.4%

SMILES: O=C(C=Cn1cnc(-c2cc(C(F)(F)F)cc(C(F)(F)F)c2)n1)NNc1cnccn1 + NC1CC1c1ccc(-c2cccc(O)c2)cc1
- IC50 [1]: < 0.00316 µM
- IC50 [2]: < 0.00316 µM
- IC50 [3]: < 0.00316 µM
- IC50 [4]: < 0.00316 µM
- IC50 [5]: < 0.00316 µM
- viability, T/C (second compound 0.1 µM, first compound 0.00316 µM): 38.1%
- viability, T/C (second compound 0.1 µM, first compound 0.01 µM): 30.3%
- viability, T/C [36]: 20.7%
- viability, T/C [37]: 3.44%
- viability, T/C [38]: 1.7%
- viability, T/C [39]: 0.86%
- viability, T/C (second compound 0.316 µM, first compound 0.00316 µM): 36.9%
- viability, T/C (second compound 0.316 µM, first compound 0.01 µM): 31%
- viability, T/C [42]: 19.6%
- viability, T/C [43]: 3.54%
- viability, T/C [44]: 1.34%
- viability, T/C [45]: 0.96%
- viability, T/C (second compound 1 µM, first compound 0.00316 µM): 38.5%
- viability, T/C (second compound 1 µM, first compound 0.01 µM): 28.9%
- viability, T/C [48]: 18.1%
- viability, T/C [49]: 3.32%
- viability, T/C [50]: 1.45%
- viability, T/C [51]: 0.94%
- viability, T/C (second compound 3.16 µM, first compound 0.00316 µM): 33.8%
- viability, T/C (second compound 3.16 µM, first compound 0.01 µM): 34.2%
- viability, T/C [54]: 19.7%
- viability, T/C [55]: 3.27%
- viability, T/C [56]: 1.83%
- viability, T/C [57]: 1.13%
- viability, T/C (second compound 10 µM, first compound 0.00316 µM): 31%
- viability, T/C (second compound 10 µM, first compound 0.01 µM): 28.9%
- viability, T/C [60]: 18.3%
- viability, T/C [61]: 4.7%
- viability, T/C [62]: 2.04%
- viability, T/C [63]: 1.62%

SMILES: CC1COCCN1c1cc(-c2ccnn2C)c2ccnc(-c3ccn[nH]3)c2n1 (configuration not stated)
- viability, T/C (compound 0.00316 µM): 81.2% and 38.9%
- viability, T/C (compound 0.01 µM): 54.9% and 37.5%
- viability, T/C (compound 0.0316 µM): 35.7% and 19.3%
- viability, T/C (compound 0.1 µM): 27% and 8.03%
- viability, T/C (compound 0.316 µM): 15.8% and 5.94%
- viability, T/C (compound 1 µM): 12.2% and 2.35%
- IC50 (curve of compound): 0.0137 µM and < 0.00316 µM

SMILES: CC(C)c1c(-c2ccccc2)nc2c(C#N)c[nH]n2c1=O + NC1CC1c1ccc(-c2cccc(O)c2)cc1
- IC50 [1]: > 10 µM
- IC50 [2]: > 10 µM
- IC50 [3]: > 10 µM
- IC50 [4]: > 10 µM
- IC50 [5]: > 10 µM
- viability, T/C [36]: 91.7%
- viability, T/C [37]: 89.1%
- viability, T/C [38]: 94.4%
- viability, T/C [39]: 96%
- viability, T/C [40]: 96.7%
- viability, T/C [41]: 84.1%
- viability, T/C [42]: 89.2%
- viability, T/C [43]: 82.6%
- viability, T/C [44]: 92.5%
- viability, T/C [45]: 91.4%
- viability, T/C [46]: 89.4%
- viability, T/C [47]: 87.9%
- viability, T/C [48]: 89.1%
- viability, T/C [49]: 88%
- viability, T/C [50]: 86.7%
- viability, T/C [51]: 102%
- viability, T/C [52]: 89.7%
- viability, T/C [53]: 79.5%
- viability, T/C [54]: 102%
- viability, T/C [55]: 83.5%
- viability, T/C [56]: 87.6%
- viability, T/C [57]: 88.2%
- viability, T/C [58]: 81.3%
- viability, T/C [59]: 74.7%
- viability, T/C [60]: 66.7%
- viability, T/C [61]: 67%
- viability, T/C [62]: 59.3%
- viability, T/C [63]: 57.2%
- viability, T/C [64]: 67.1%
- viability, T/C [65]: 49.4%
